Reference: EP0937460A2, “Use of an antidiarrheal for the manufacture of a medicament for the treatment of inflammatory conditions” (Adolor Corporation, priority 1994, dated 1995)
Where a name gives a salt, the structure may show the parent alone. Read-outs that look alike come from different tables or passages of the source.

Key:
[1] = tested on: KC mRNA; test: TPA-induced KC mRNA expression in hairless mouse skin (RT-PCR); conditions: verapamil 4% w/v topical; 3 hour; one of three mice; p = 0.04
[2] = tested on: TNF production; test: Inhibition of LPS-stimulated TNF production in the human monocytic cell line THP-1 (ELISA); assay type: cell-based; conditions: for activity at 10 µM / inhibition at 10 µM: Homo sapiens; for activity at 10 µM: read-out: TNF LEVEL % Control (LPS alone), Ave. ± S.D.
Description: Cultures were maintained by the addition of fresh growth medium to a T-75 or T-150 flask of cells in suspension, or by pelleting the cells and re-suspending them in the appropriate volume of fresh medium. Maximum cell density was 1.0 x 10^6 cells per mL and cultures were seeded at a minimum density of 0.2 x 10^6 cells per ml.
(§1) THP-1 cells were plated into 24-well plates at a density of 1.0 x 10^6 cells per mL in 0.5 mL medium per well. […] For measurement of IL-1α and IL-1β production, THP-1 cells were incubated with 500 ng/mL or 50 ng/mL LPS and incubated for 16 hours. Levels of secreted cytokine were measured in cell supernatants as for TNF. Cell-associated species were measured in cell lysates which were prepared by repetitive freeze-thawing of cells. For in vitro screening, drugs at 10 µM concentration were co-administered with LPS. […] Drug effects on cell viability were assessed by the MTT assay. […] Water-soluble drugs were dissolved in aqueous solutions such as RPMI or deionized H20. The final concentration of DMSO in the incubation medium was at or below 0.01% and that of ethanol was at or below 0. 1%. The effect on cell viability was evaluated by the MTT assay.

[3] = tested on: IL-1α; test: LPS-stimulated IL-1α production by THP-1 cells; assay type: cell-based, human
Description: as §1

[4] = tested on: mice; test: Skin inflammation induced by 2% sodium lauryl sulfate (SLS) in mice; assay type: in vivo; conditions: 2% SLS with near saturated verapamil
Description: Following the 24 hour exposure, the Hilltop chambers were removed and, after 18 hours, skin thickness readings were taken. […] Table

[5] = tested on: hairless mice; test: DNCB-induced contact hypersensitivity in hairless mice, ear swelling; assay type: in vivo, mouse
Description: Similar to what has been commonly reported by other investigators, the specific protocol used in these studies involved the application of DNCB (in an acetone:olive oil 4:1 vehicle) to the skin on the posterior portion of the back of hairless mice. Five days later, DNCB was applied to the dorsal surface of the ears. At the indicated time point, the mice were euthanized, ear thickness was measured, and the samples were processed for either RNA extraction, protein analysis, or histology.
Experiments were carried out in an effort to inhibit the DNCB-induced immune reaction with various drugs. […] The left ear was similarly treated with vehicle.
The ability of amiloride to suppress DNCB-induced ear swelling was also examined. In these experiments, mice were sensitized with DNCB, and, five days later, amiloride (2% w/v in 70% propylene glycol: 30% ethanol) was applied to the right ear and vehicle to the left ear 30 minutes and 8 hours after DNCB challenge.

[6] = tested on: TNF mRNA; test: TPA-induced TNF mRNA expression in hairless mouse skin (RT-PCR); assay type: in vivo; conditions: verapamil 4% w/v in ethanol, topical; 3 hour time point; p < 0.01
[7] = tested on: IL-1β; test: LPS-stimulated IL-1β production by THP-1 cells; assay type: cell-based, human
Description: as §1

[8] = tested on: TNF production; test: Inhibition of LPS-stimulated TNF production in the mouse macrophage line RAW 264.7 (ELISA); assay type: cell-based; conditions: for activity at 10 µM: RAW264.7, 6 h, read-out: TNF LEVEL % Control (LPS alone), Ave. ± S.D.; for effectiveness against LPS-stimulated TNF production (in words): drug 10 µM
Description: Cells were passaged at confluence by scraping and routinely plated at a density of 0.25 x 10^6 and 0.5 x 10^6 cells per T-75 and T-150, respectively.
Typically, RAW cells were plated at 0.25 x 10^6 cells per well of a 24-well plate, in 0.5 mL media per well on the day prior to experimentation. […] 1%. Drugs were co-administered with the stimulant, LPS. After a 6-hr incubation period with LPS ± drug (n = 3-4), the media from the experimental wells was harvested, the cells were removed by microcentrifugation, and the media assayed for TNF by ELISA. Drugs were screened at 10 µM for their ability to alter TNF production by cells stimulated with 1 µg/mL or 10 ng/mL LPS. Dexamethasone, an anti-inflammatory corticosteroid, served as the reference for inhibition of the LPS response.

[9] = tested on: THP-1 cells; test: MTT assay of THP-1 cell viability
Description: as §1

[10] = tested on: humans; test: Skin inflammation models in humans (2% sodium laurel sulfate or 5% nickel sulfate, 24 hour patch test); assay type: in vivo
Description: Human skin inflammation was elicited by either 2% sodium laurel sulfate in normal volunteers (irritant contact dermatitis) or by 5% nickel sulfate in nickel-sensitive individuals (allergic contact dermatitis) using a 24 hour patch test. Following the elicitation, either topical verapamil formulation or a placebo formulation was applied three times daily for two consecutive days on two respective sites. At the end of the two-day topical treatment, the degree of skin inflammation (i.e., erythema, edema and blister formation was assessed by a trained dermatologist. Skin biopsies were taken from the placebo and the active sites and analyzed for skin thickness and TNF levels using immunohistochemical techniques.

[11] = tested on: TNF production; test: Inhibition of TPA-stimulated TNF production in human epidermal keratinocytes (ELISA); assay type: cell-based
[12] = tested on: hairless mice
Description: In addition to assessing the cytokine mRNA levels, the time course of the TPA-induced increase in skin thickness was also evaluated. This measurement was made with a micrometer using skin excised from euthanized mice. […] Further increases were typically seen 8 hours with this response being maintained through the 24 hour time point.
Three of the mice were euthanized at the 3 hour time point, and the treated sites were analyzed for TNF mRNA by RT-PCR. The fourth mouse was euthanized at a 24 hour time point, and the thickness of the treated areas of skin was measured using a micrometer.
At the 8 hours time point, the mice were euthanized, the treated areas of skin were excised, and the thickness of the skin was measured using a micrometer.

[13] = Mus musculus, RAW cells, DRUG [10 µM], LPS at 10 ng/mL

With `COc1ccc(CCN(C)CCCC(C#N)(c2ccc(OC)c(OC)c2)C(C)C)cc1OC` (racemic) [(±)-Verapamil, verapamil] the “KC mRNA levels” value [1] was “significant suppression”, the activity at 10 µM ([2]; THP-1, 6 h) was 46 ± 9% and the inhibition at 10 µM ([2]; THP-1, read-out: inhibition of TNF production) was 54%. The inhibition at 0.05 µg/mL ([3]; Homo sapiens, THP-1, 16 h, read-out: inhibition of IL-1α levels) was 40 to 50%, the “Skin Thickness (mm, n = 4)” value ([4]; 24 hours occlusion, read 18 hours after removal (2% SLS alone 1.23, untreated 0.59)) was 0.65 ± 0.09 mm and the “Visual Observation” value ([4]; 24 hours under occlusion) was “Normal”. The “swelling of the ear after DNCB challenge” value ([5]; verapamil 4% w/v topical, initial experiment) was “some suppression”, the “ear swelling after DNCB challenge” value ([5]; verapamil 5% w/v topical, n = 6, repeated experiment) was “significantly reduced” and the “skin TNF mRNA levels compared to TPA alone” value [6] was “significant reduction”. The inhibition at 0.05 µg/mL ([7]; Homo sapiens, THP-1, 16 h, read-out: inhibition of IL-1β levels) was ~33%, the activity at 10 µM [8, 13] was 36 ± 1% and the “THP-1 cell viability (MTT assay)” value ([9]; highest dose tested) was “did not impact”. For the same molecule, the “patients in whom dermatitis resolved faster on treated sites” value ([10]; challenged with 2% sodium laurel sulfate) was 2 out of 3, the “patients with skin thickness less on treated sites than placebo sites” value ([10]; topical verapamil three times daily for two days) was 4 out of 6 and the “patients with less TNF in the skin biopsies than placebo sites” value ([10]; topical verapamil three times daily for two days, immunohistochemistry) was 4 out of 6.

With `N=C(N)NC(=O)c1nc(Cl)c(N)nc1N` [Amiloride, amiloride] the activity at 10 µM ([11]; Homo sapiens, epidermal keratinocytes, HEK cells, DRUG [10 µM], stimulation by TPA 10 ng/mL, read-out: TNF LEVEL % Control (LPS alone), Ave. ± S.D.) was ≥ 100%, the activity at 10 µM ([2]; 6 h, THP-1 cells, DRUG [10 µM], LPS 1 µg/mL) was 56 ± 15% and the inhibition at 10 µM ([2]; LPS-stimulated THP-1 cells, drug 10 µM, read-out: inhibition of TNF production) was 40%. The “effectiveness against LPS-stimulated TNF production (in words)” value (“effectiveness” for short) ([2]; LPS-stimulated THP-1 cells, 10 µM) was “comparatively more effective”, the “IC50 value (50% of the maximal inhibition, as defined by effects at 10 µM)” value ([2]; LPS-stimulated TNF production, THP-1 cells) was “within the same range” and the “level of cell-associated and secreted IL-1α (in words)” value ([3]; THP-1 cells, 10 µM) was “reduce the level”. For the same molecule, the “ear thickness, % of pre-challenge values” ([5]; DNCB + amiloride 2% w/v topical (DNCB alone 135%), p < 0.002) was 113%, the “level of cell-associated and secreted IL-1β (in words)” value ([7]; THP-1 cells, 10 µM) was “reduce the level” and the activity at 10 µM [8, 13] was 75 ± 25%. For the same molecule, the “effectiveness” value ([8]; RAW cells) was “moderately effective” and the “THP-1 cell viability (MTT assay)” value [9] was “did not impact”.

For `CN(C)C(=O)C(CCN1CCC(O)(c2ccc(Cl)cc2)CC1)(c1ccccc1)c1ccccc1` [Loperamide, 4-(p-chlorophenyl)-4-hydroxy-N,N-dimethyl-α, α-diphenyl-1-piperidine butyramide HCL], the “effect on TPA-stimulated levels of TNF (in words)” value ([11]; human keratinocytes, TPA 10 ng/mL, drug 10 µM) was “very effective”, the activity at 10 µM ([2]; THP-1, 6 h) was 42 ± 22% and the inhibition at 10 µM ([2]; THP-1, read-out: inhibition of TNF production, LPS-stimulated THP-1 cells, drug 10 µM) was ~42%. The skin thickness ([12]; TPA + loperamide 7.5% solution topical, 8 hour, first experiment (vehicle 0.36 mm, TPA 0.56 mm)) was 0.39 mm, the skin thickness ([12]; TPA + loperamide topical, second experiment (vehicle 0.39 mm, TPA 0.89 mm), p<0.01 vs. TPA alone) was 0.57 mm and the “thickness of skin treated with drug alone compared to vehicle-treated skin” value ([12]; loperamide 7.5% alone, no TPA) was “unchanged”. The “inhibition of the TPA-induced swelling response” value ([12]; loperamide topical, second experiment) was 64%, the “TPA-induced increase in skin thickness / swelling response (in words)” value ([12]; topical application, loperamide: 8 hour time point, first experiment) was “completely inhibit” and the activity at 10 µM ([8]; Mus musculus) was 62 ± 32%. For the same molecule, the inhibition at 10 µM ([8]; Mus musculus, RAW264.7, read-out: inhibition of LPS-stimulated TNF secretion) was 62%, the “effectiveness” value ([8]; RAW cells) was “lowering of TNF levels” and the “THP-1 cell viability (MTT assay)” value ([9]; highest dose tested) was “did not impact”.
